# Measured values published in ChEMBL document CHEMBL4800729 (2021).
# Columns and labels:
# [1] = biological target: Monoamine oxidase A (MAO-A) (Homo sapiens, UniProt P21397); test: Inhibition of Monoamine Oxidase MAO-A at compound concentration of 10.0 uM in the Eurofins-Panlabs enzyme assay (Eurofins_assay_140010); set-up: substrate with concentration 50 uM Kynuramine, incubation time 60 min, incubation temperature 37 C; conditions: recombinant human MAO-A expressed in insect Hi5 cells, probe Kynuramine (50 uM), compound concentration 10 uM
# [2] = biological target: NUAK family SNF1-like kinase 1 (Homo sapiens) (UniProt O60285); test: ARK5(h) Millipore kinase panel; conditions: Compound concentration 1.0 uM
# [3] = biological target: Cytoplasmic tyrosine-protein kinase BMX (Homo sapiens) (UniProt P51813); test: Bmx(h) Millipore kinase panel; conditions: Compound concentration 1.0 uM
# [4] = species: Homo sapiens; test: Cdc7/cyclinB(h) Millipore kinase panel; conditions: Compound concentration 1.0 uM
# [5] = biological target: Cyclin-dependent kinase 5/CDK5 activator 1 (Homo sapiens) (UniProt Q00535+Q15078); test: CDK5/p35(h) Millipore kinase panel; format: protein-complex assay; conditions: Compound concentration 1.0 uM
# [6] = biological target: Cyclin-dependent kinase-like 4 (Homo sapiens) (UniProt Q5MAI5); test: CDKL4(h) Millipore kinase panel; conditions: Compound concentration 1.0 uM
# [7] = biological target: Transient receptor potential cation channel subfamily M member 7 (Homo sapiens) (UniProt Q96QT4); test: ChaK1(h) Millipore kinase panel; conditions: Compound concentration 1.0 uM
# [8] = biological target: Casein kinase I isoform epsilon (Homo sapiens) (UniProt P49674); test: CK1epsilon(h) Millipore kinase panel; conditions: Compound concentration 1.0 uM
# [9] = biological target: Casein kinase I isoform gamma-2 (Homo sapiens) (UniProt P78368); test: CK1gamma2(h) Millipore kinase panel; conditions: Compound concentration 1.0 uM
# [10] = biological target: Casein kinase II subunit alpha (Homo sapiens) (UniProt P68400); test: CK2(h) Millipore kinase panel; conditions: Compound concentration 1.0 uM
# [11] = biological target: Dual specificity protein kinase CLK2 (Homo sapiens) (UniProt P49760); test: CLK2(h) Millipore kinase panel; conditions: Compound concentration 1.0 uM
# [12] = biological target: RAF proto-oncogene serine/threonine-protein kinase (Homo sapiens) (UniProt P04049); test: c-RAF(h) Millipore kinase panel; conditions: Compound concentration 1.0 uM
# [13] = biological target: Dual specificity tyrosine-phosphorylation-regulated kinase 3 (Homo sapiens) (UniProt O43781); test: DYRK3(h) Millipore kinase panel; conditions: Compound concentration 1.0 uM
# [14] = biological target: Ephrin type-B receptor 3 (Homo sapiens) (UniProt P54753); test: EphB3(h) Millipore kinase panel; conditions: Compound concentration 1.0 uM
# [15] = biological target: Fibroblast growth factor receptor 1 (Homo sapiens) (UniProt P11362); test: FGFR1(h) Millipore kinase panel; conditions: Compound concentration 1.0 uM
# [16] = biological target: eIF-2-alpha kinase GCN2 (Homo sapiens) (UniProt Q9P2K8); test: GCN2(h) Millipore kinase panel; conditions: Compound concentration 1.0 uM
# [17] = biological target: G protein-coupled receptor kinase 5 (Homo sapiens) (UniProt P34947); test: GRK5(h) Millipore kinase panel; conditions: Compound concentration 1.0 uM
# [18] = biological target: Serine/threonine-protein kinase ICK (Homo sapiens) (UniProt Q9UPZ9); test: ICK(h) Millipore kinase panel; conditions: Compound concentration 1.0 uM
# [19] = biological target: Interleukin-1 receptor-associated kinase 4 (Homo sapiens) (UniProt Q9NWZ3); test: IRAK4(h) Millipore kinase panel; conditions: Compound concentration 1.0 uM
# [20] = biological target: Mitogen-activated protein kinase 9 (Homo sapiens) (UniProt P45984); test: JNK2alpha2(h) Millipore kinase panel; conditions: Compound concentration 1.0 uM
# [21] = biological target: Serine/threonine-protein kinase STK11 (Homo sapiens) (UniProt Q15831); test: LKB1(h) Millipore kinase panel; conditions: Compound concentration 1.0 uM
# [22] = biological target: Serine/threonine-protein kinase MAK (Homo sapiens) (UniProt P20794); test: MAK(h) Millipore kinase panel; conditions: Compound concentration 1.0 uM
# [23] = biological target: Mitogen-activated protein kinase kinase kinase kinase 5 (Homo sapiens) (UniProt Q9Y4K4); test: MAP4K5(h) Millipore kinase panel; conditions: Compound concentration 1.0 uM
# [24] = biological target: MAP/microtubule affinity-regulating kinase 4 (Homo sapiens) (UniProt Q96L34); test: MARK4(h) Millipore kinase panel; conditions: Compound concentration 1.0 uM
# [25] = biological target: Dual specificity mitogen-activated protein kinase kinase 1 (Homo sapiens) (UniProt Q02750); test: MEK1(h) Millipore kinase panel; conditions: Compound concentration 1.0 uM
# [26] = biological target: Serine/threonine-protein kinase 4 (Homo sapiens) (UniProt Q13043); test: MST1(h) Millipore kinase panel; conditions: Compound concentration 1.0 uM
# [27] = biological target: Serine/threonine-protein kinase 24 (Homo sapiens) (UniProt Q9Y6E0); test: MST3(h) Millipore kinase panel; conditions: Compound concentration 1.0 uM
# [28] = biological target: Myosin light chain kinase 2, skeletal/cardiac muscle (Homo sapiens) (UniProt Q9H1R3); test: MYLK2(h) Millipore kinase panel; conditions: Compound concentration 1.0 uM
# [29] = biological target: Serine/threonine-protein kinase Nek9 (Homo sapiens) (UniProt Q8TD19); test: NEK9(h) Millipore kinase panel; conditions: Compound concentration 1.0 uM
# [30] = biological target: Serine/threonine-protein kinase PAK 5 (Homo sapiens) (UniProt Q9P286); test: PAK5(h) Millipore kinase panel; conditions: Compound concentration 1.0 uM
# [31] = biological target: Phosphatidylinositol 4-phosphate 3-kinase C2 domain-containing subunit alpha (Homo sapiens) (UniProt O00443); test: PI3KC2a(h) Millipore kinase panel; conditions: Compound concentration 1.0 uM
# [32] = biological target: Serine/threonine-protein kinase pim-1 (Homo sapiens) (UniProt P11309); test: Pim-1(h) Millipore kinase panel; conditions: Compound concentration 1.0 uM
# [33] = biological target: Serine/threonine-protein kinase D2 (Homo sapiens) (UniProt Q9BZL6); test: PKD2(h) Millipore kinase panel; conditions: Compound concentration 1.0 uM
# [34] = biological target: MAP kinase-activated protein kinase 5 (Homo sapiens) (UniProt Q8IW41); test: PRAK(h) Millipore kinase panel; conditions: Compound concentration 1.0 uM
# [35] = biological target: Macrophage-stimulating protein receptor (Homo sapiens) (UniProt Q04912); test: Ron(h) Millipore kinase panel; conditions: Compound concentration 1.0 uM
# [36] = biological target: Ribosomal protein S6 kinase alpha-3 (Homo sapiens) (UniProt P51812); test: Rsk2(h) Millipore kinase panel; conditions: Compound concentration 1.0 uM
# [37] = biological target: Ribosomal protein S6 kinase alpha-2 (Homo sapiens) (UniProt Q15349); test: Rsk3(h) Millipore kinase panel; conditions: Compound concentration 1.0 uM
# [38] = biological target: Ribosomal protein S6 kinase alpha-6 (Homo sapiens) (UniProt Q9UK32); test: Rsk4(h) Millipore kinase panel; conditions: Compound concentration 1.0 uM
# [39] = biological target: Mitogen-activated protein kinase 13 (Homo sapiens) (UniProt O15264); test: SAPK4(h) Millipore kinase panel; conditions: Compound concentration 1.0 uM
# [40] = biological target: Serine/threonine-protein kinase SBK1 (Homo sapiens) (UniProt Q52WX2); test: SBK1(h) Millipore kinase panel; conditions: Compound concentration 1.0 uM
# [41] = biological target: SRSF protein kinase 1 (Homo sapiens) (UniProt Q96SB4); test: SRPK1(h) Millipore kinase panel; conditions: Compound concentration 1.0 uM
# [42] = biological target: Angiopoietin-1 receptor (Homo sapiens) (UniProt Q02763); test: Tie2(h) Millipore kinase panel; conditions: Compound concentration 1.0 uM
# [43] = biological target: Tyrosine-protein kinase TXK (Homo sapiens) (UniProt P42681); test: Txk(h) Millipore kinase panel; conditions: Compound concentration 1.0 uM
# [44] = biological target: Mu-type opioid receptor (Homo sapiens) (UniProt P35372); conditions: Compound concentration 10.0 uM
# [45] = biological target: Histamine H3 receptor (Homo sapiens) (UniProt Q9Y5N1); conditions: Compound concentration 10.0 uM
# [46] = biological target: Adenosine receptor A3 (Homo sapiens) (UniProt P0DMS8); conditions: Compound concentration 10.0 uM
# [47] = biological target: Muscarinic acetylcholine receptor M4 (Homo sapiens) (UniProt P08173); conditions: Compound concentration 10.0 uM
# [48] = biological target: 5-hydroxytryptamine receptor 2C (Homo sapiens) (UniProt P28335); conditions: Compound concentration 10.0 uM
# [49] = biological target: Phosphorylase b kinase gamma catalytic chain, testis/liver isoform (Homo sapiens) (UniProt P15735); test: PhKgamma2(h) Millipore kinase panel; conditions: Compound concentration 1.0 uM
# Casein kinase I isoform gamma-2 (Homo sapiens), sequence (P78368 whole entry, looked up, canonical isoform): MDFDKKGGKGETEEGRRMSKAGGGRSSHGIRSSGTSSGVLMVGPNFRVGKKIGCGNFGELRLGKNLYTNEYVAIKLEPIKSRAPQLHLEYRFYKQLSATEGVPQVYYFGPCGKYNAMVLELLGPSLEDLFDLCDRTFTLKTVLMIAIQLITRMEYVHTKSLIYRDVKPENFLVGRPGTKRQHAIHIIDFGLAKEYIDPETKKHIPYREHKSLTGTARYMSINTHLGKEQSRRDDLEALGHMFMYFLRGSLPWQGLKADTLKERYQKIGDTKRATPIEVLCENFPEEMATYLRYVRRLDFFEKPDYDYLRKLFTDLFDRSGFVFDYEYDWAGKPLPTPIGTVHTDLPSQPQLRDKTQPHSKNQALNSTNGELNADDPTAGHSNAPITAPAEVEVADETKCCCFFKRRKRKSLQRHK
# NUAK family SNF1-like kinase 1 (Homo sapiens), sequence (O60285 whole entry): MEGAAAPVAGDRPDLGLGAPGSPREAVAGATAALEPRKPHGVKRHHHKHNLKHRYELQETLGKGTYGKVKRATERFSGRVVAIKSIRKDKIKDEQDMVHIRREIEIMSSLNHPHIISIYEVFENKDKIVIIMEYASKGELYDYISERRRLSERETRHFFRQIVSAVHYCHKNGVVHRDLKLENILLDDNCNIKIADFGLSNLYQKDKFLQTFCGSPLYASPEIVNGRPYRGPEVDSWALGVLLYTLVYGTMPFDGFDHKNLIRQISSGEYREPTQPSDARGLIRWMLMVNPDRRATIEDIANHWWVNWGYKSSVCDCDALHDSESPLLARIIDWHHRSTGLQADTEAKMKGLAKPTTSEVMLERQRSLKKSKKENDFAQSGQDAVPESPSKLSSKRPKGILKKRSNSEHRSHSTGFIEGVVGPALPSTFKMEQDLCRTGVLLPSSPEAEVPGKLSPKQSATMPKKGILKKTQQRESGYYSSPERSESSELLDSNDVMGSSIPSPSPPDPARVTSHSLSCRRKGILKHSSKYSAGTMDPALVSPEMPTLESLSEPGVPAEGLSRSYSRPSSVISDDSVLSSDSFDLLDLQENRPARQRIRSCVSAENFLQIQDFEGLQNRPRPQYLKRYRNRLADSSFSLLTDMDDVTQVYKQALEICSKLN
# Adenosine receptor A3 (Homo sapiens), sequence (P0DMS8 whole entry): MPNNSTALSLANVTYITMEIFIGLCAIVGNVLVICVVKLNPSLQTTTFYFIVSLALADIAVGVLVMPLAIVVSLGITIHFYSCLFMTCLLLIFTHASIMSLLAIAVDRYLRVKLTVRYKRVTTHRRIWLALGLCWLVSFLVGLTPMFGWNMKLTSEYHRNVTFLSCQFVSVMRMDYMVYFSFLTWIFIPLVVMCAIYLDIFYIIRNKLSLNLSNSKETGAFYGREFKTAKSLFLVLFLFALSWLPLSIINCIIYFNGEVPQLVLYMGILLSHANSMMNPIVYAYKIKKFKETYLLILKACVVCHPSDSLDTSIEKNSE
# Serine/threonine-protein kinase MAK (Homo sapiens), sequence (P20794 whole entry): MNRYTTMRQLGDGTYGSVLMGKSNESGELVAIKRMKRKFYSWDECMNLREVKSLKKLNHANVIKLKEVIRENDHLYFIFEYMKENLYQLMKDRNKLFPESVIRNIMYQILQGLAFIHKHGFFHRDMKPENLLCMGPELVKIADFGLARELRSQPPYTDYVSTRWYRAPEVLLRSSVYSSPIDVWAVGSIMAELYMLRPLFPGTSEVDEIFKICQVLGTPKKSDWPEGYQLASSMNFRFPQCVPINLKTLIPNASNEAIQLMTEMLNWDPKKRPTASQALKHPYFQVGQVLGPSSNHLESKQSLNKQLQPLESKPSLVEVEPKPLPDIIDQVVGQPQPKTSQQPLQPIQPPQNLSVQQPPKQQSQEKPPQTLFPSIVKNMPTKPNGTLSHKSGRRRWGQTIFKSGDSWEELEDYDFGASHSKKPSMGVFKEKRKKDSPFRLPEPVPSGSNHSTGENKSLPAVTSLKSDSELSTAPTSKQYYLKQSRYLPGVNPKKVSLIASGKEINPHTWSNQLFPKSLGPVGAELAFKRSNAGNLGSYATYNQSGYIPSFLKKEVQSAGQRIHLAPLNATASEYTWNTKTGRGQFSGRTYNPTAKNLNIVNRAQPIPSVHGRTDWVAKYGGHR
# Serine/threonine-protein kinase PAK 5 (Homo sapiens), sequence (Q9P286 whole entry, looked up, the tested form may be a part): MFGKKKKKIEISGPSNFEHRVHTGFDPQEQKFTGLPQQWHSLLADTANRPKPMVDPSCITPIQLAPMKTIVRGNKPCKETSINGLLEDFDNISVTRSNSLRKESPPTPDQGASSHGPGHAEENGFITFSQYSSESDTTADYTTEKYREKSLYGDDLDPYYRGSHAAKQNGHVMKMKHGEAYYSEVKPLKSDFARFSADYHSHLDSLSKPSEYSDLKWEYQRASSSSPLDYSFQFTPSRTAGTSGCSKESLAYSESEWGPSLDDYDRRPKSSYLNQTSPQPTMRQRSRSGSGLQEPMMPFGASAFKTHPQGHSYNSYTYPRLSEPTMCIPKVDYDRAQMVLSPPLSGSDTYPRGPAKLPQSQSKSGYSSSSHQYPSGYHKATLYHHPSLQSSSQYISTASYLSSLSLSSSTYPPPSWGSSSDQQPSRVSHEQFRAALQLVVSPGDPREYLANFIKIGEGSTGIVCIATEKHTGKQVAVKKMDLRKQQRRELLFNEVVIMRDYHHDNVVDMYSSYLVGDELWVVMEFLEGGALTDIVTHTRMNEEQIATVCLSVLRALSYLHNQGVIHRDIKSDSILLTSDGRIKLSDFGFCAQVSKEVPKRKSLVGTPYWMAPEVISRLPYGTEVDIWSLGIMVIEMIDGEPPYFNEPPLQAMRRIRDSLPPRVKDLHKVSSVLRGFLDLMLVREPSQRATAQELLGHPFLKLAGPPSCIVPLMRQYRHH
# Serine/threonine-protein kinase STK11 (Homo sapiens), sequence (Q15831 whole entry): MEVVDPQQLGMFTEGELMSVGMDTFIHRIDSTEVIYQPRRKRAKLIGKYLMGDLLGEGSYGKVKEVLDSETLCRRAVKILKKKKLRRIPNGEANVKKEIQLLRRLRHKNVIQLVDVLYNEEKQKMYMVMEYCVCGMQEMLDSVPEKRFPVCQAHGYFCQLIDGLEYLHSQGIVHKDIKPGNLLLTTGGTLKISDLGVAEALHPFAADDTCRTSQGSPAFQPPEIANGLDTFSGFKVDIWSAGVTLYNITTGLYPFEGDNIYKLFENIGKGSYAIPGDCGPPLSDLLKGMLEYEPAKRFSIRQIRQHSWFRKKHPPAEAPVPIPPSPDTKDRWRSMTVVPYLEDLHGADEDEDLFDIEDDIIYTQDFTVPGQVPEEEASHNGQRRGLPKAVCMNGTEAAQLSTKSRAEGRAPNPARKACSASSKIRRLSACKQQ
# Dual specificity tyrosine-phosphorylation-regulated kinase 3 (Homo sapiens), sequence (O43781 whole entry): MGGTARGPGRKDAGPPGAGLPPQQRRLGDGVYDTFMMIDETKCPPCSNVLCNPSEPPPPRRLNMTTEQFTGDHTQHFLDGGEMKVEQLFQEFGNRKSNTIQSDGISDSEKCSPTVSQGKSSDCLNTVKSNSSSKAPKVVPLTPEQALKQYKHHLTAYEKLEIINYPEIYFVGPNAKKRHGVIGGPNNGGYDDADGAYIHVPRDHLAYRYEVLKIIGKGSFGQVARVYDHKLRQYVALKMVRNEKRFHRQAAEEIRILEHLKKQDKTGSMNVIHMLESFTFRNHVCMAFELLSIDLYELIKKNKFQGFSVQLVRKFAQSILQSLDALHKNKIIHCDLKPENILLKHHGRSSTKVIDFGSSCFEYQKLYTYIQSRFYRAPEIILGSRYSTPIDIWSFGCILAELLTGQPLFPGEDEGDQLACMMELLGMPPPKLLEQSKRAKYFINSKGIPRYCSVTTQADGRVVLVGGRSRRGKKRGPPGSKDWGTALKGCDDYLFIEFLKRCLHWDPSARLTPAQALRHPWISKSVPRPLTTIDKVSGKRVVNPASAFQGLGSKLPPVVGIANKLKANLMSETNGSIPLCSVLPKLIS
# Serine/threonine-protein kinase 24 (Homo sapiens), sequence (Q9Y6E0 whole entry, looked up): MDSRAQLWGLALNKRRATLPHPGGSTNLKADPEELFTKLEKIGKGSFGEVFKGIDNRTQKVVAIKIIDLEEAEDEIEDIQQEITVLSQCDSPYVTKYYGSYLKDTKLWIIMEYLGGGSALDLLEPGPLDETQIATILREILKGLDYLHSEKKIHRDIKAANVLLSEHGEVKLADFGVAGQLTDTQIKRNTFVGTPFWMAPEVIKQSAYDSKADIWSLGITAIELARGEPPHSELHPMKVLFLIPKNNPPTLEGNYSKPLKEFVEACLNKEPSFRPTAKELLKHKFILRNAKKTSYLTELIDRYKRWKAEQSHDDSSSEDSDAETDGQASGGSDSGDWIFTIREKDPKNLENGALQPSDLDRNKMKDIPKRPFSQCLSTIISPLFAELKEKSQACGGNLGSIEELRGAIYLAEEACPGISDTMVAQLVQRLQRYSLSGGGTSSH
# 5-hydroxytryptamine receptor 2C (Homo sapiens), sequence (P28335 whole entry, canonical isoform): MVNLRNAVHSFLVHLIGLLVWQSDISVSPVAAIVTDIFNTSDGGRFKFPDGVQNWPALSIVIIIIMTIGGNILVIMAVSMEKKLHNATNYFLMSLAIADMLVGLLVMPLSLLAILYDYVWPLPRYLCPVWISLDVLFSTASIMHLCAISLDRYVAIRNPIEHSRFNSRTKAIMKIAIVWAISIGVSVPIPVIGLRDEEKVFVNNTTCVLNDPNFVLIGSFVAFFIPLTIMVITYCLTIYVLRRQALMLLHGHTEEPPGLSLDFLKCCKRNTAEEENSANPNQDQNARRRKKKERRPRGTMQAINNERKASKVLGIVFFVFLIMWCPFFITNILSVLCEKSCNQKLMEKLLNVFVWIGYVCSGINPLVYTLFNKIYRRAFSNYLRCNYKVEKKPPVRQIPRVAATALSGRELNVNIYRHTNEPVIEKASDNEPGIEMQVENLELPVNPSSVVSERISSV
# Serine/threonine-protein kinase pim-1 (Homo sapiens), sequence (P11309 whole entry, looked up): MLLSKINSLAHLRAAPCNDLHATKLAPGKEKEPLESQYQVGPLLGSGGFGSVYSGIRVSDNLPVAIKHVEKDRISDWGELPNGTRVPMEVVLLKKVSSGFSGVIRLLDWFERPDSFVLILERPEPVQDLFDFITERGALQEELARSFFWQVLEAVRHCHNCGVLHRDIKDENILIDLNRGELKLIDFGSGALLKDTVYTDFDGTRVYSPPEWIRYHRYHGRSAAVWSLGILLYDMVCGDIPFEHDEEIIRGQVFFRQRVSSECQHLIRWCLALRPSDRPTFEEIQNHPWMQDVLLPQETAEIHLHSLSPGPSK
structure (smiles),measurement,setting,value
CC[C@@H](Nc1c(C#N)c(-c2ccc(-c3cccc(C)c3F)cc2)nc2cnccc12)C(=O)O [BAY-091],"inhibition at 60 min, 10 µM",[1],7% (not active)
same,inhibition,[2],4.55%
same,inhibition,[3],3.69%
same,inhibition,[4],3.59%
same,inhibition,[5],-0.03%
same,inhibition,[6],12.6%
same,inhibition,[7],0.08%
same,inhibition,[8],8.85%
same,inhibition,[9],12.4%
same,inhibition,[10],4.66%
same,inhibition,[11],0.07%
same,inhibition,[12],36%
same,inhibition,[13],7.66%
same,inhibition,[14],-5.61%
same,inhibition,[15],6.44%
same,inhibition,[16],-3.21%
same,inhibition,[17],-3.49%
same,inhibition,[18],14.8%
same,inhibition,[19],6.22%
same,inhibition,[20],-1.41%
same,inhibition,[21],5.7%
same,inhibition,[22],9.23%
same,inhibition,[23],13.3%
same,inhibition,[24],5.8%
same,inhibition,[25],21.5%
same,inhibition,[26],20.6%
same,inhibition,[27],1.03%
same,inhibition,[28],7.84%
same,inhibition,[29],6.61%
same,inhibition,[30],1.42%
same,inhibition,[31],4.18%
same,inhibition,[32],-2.53%
same,inhibition,[33],4.37%
same,inhibition,[34],23.6%
same,inhibition,[35],0.76%
same,inhibition,[36],1.78%
same,inhibition,[37],10.9%
same,inhibition,[38],-6.19%
same,inhibition,[39],-3.58%
same,inhibition,[40],4.02%
same,inhibition,[41],3.4%
same,inhibition,[42],12.8%
same,inhibition,[43],-2.9%
same,inhibition,[44],1.43%
same,inhibition,[45],-3.06%
same,inhibition,[46],21%
same,inhibition,[47],6%
same,inhibition,[48],29%
same,inhibition,[49],-0.34%
